{
  "source": "patent US20070032418A1",
  "about": "“Small-molecule inhibitors of angiogenin and rnases and in vivo and in vitro methods of using same” (Ambion, Inc, priority 2003, published 2007)",
  "key": {"angiogenin (ANG)": {"biological_target": "angiogenin (ANG) (Homo sapiens, UniProt P03950)", "sequence (P03950 25-147)": "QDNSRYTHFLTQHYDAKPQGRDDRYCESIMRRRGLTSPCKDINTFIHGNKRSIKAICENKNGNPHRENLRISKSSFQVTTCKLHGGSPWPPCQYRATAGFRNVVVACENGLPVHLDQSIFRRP", "assay": "Inhibition of ANG ribonucleolytic activity, HPLC assay of oligonucleotide cleavage", "format": "biochemical", "description": "Reaction mixtures with and without test compounds were chromatographed on a Mono Q anion-exchange column with an NaCl gradient in 10 mM Tris, pH 8. […] This information was used to calculate kcat/Km values, which were then fitted to the equation (kcat/Km)i=(kcat/Km)0/[…], where (kcat/Km)i and (kcat/Km)0 are defined as the values in the presence and absence of inhibitor, respectively, and [I] is defined as the inhibitor concentration. At least four concentrations (in a range of about 10 μM-above 100 μM) were used in the final hit confirmation in order to distinguish all true hits.\nChemical structures of selected compounds are shown in these Tables and in FIGS. 4 and 5."}, "[1]": {"biological_target": "T1, bovine pancreatic RNase A (Bos taurus, UniProt P61823)", "T1 sequence (P61823 27-150)": "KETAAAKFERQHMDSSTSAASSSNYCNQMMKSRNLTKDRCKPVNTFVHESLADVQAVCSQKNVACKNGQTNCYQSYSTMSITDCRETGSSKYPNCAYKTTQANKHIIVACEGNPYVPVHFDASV", "assay": "Inhibition of bovine pancreatic RNase A (specificity versus ANG)", "format": "biochemical"}, "[2]": {"system": "PC-3 human prostate tumor cells", "assay": "PC-3 tumor formation in athymic mice", "format": "in vivo", "description": "Compound NCI-65828 was identified by HTS as an ANG inhibitor. […] Each compound was administered 6 times per week, in doses of 40 μg, 8 μg, and 1.6 μg (about 2, 0.4 and 0.08 mg/kg/day). The compound was dissolved in DMSO, and control mice received a corresponding volume of DMSO (4%, 0.8% and 0%). Another control group received saline.\nAnother in vivo mouse experiment was performed using 8 or 12 mice per group. The experimental group was administered PC-3 cells and NCI-65828, as intraperitoneal injections (40 μg and 8 μg). A control group of mice was administered PC-3 cells and a related compound that was known to be ineffective at inhibiting ANG enzymatic activity. Mice were evaluated for number of animals that remained tumor free as a function of time, at intervals of 3 days from days 14-42 following the initial injection.\nConcentrated stocks of inhibitors were prepared in dimethylsulfoxide (DMSO), and the inhibitors were diluted into phosphate-buffered saline (PBS); the final DMSO concentration for the 40 μg and 20 μg doses was 4% in PBS, and that for the 8 μg and 4 μg doses was 0.8% in PBS. Statistical significance (P values) was determined from Mantel-Cox tests performed on Kaplan-Meier survivor functions. Results for inhibitor-treated groups were compared to results obtained with the appropriate DMSO control groups. A positive control group of mice, administered antisense DNA specific for the ANG gene in PBS (no DMSO), was also included. ANG antisense DNA was shown previously to be extremely effective in this tumor model.\nTumor cells from a human prostate cancer (PC-3) were injected subcutaneously (s.c.) in the shoulder of 6-7 week old athymic (nude) mice on day 0. Treatment with the indicated amount of inhibitor (in 100 μL) was given subcutaneously in the same area as the cells, 6 times per week, with the first injection 5-10 minutes prior to injection of the cells. The total dosage was 0.4 mg to 2 mg per kg per day."}, "[3]": {"system": "HT-29 human colonic adenocarcinoma cells", "assay": "HT-29 tumor formation in athymic mice", "format": "in vivo", "settings": "local treatment s.c. 40 μg/day, 6×/week", "description": "Mice were examined 2×/week for palpable tumors. Treatment doses: 40 μg/day (A and C); 8 μg/day (B). n=8 for all groups except the vehicle controls in A and B, where n=12."}, "E. coli RNase I": {"biological_target": "E. coli RNase I (Escherichia coli, UniProt P21338)", "sequence (P21338 24-268)": "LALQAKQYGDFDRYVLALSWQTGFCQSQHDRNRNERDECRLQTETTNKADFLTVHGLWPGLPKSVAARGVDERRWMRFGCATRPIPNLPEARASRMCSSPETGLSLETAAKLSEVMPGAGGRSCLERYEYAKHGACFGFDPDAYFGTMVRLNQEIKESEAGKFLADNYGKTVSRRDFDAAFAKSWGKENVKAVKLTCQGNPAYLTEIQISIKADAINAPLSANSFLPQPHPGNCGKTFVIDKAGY", "assay": "Intactness of total RNA challenged with purified RNase", "format": "biochemical", "settings": "100 uM inhibitor; E. coli RNase I 7 ng/ul; 100 ng/ul mouse liver total RNA, 23° C., 4 min"}, "[4]": {"settings": "20 mM Hepes, 100 mM NaCl, pH 7.0, 37° C., read-out: Ki for inhibition of the ribonucleolytic activity of angiogenin"}, "[5]": {"settings": "inhibition of ANG-catalyzed cleavage of an RNA oligonucleotide, 20 mM Hepes, 100 mM NaCl, 37° C., read-out: KI"}, "[6]": {"settings": "PC-3 s.c., 8 μg s.c. 6 times per week"}, "[7]": {"settings": "PC-3 s.c., 40 μg s.c. 6 times per week"}},
  "note": "“Also recorded” adds a separate entry of the source. Read-outs that look alike come from different tables or passages of the source.",
  "data": [
    {"molecule": "O=C(Nc1ccc(Cc2ccc(NC(=O)c3ccc(-c4ccccc4)cc3)c(C(=O)O)c2)cc1C(=O)O)c1ccc(-c2ccccc2)cc1", "note": "[CB-473872]", "values": [
      {"measurement": "Ki", "setting": "angiogenin (ANG); [4]", "result": 20, "unit": "µM"},
      {"measurement": "Tighter binding to ANG than to RNase A", "setting": "[1]", "result": 2.3, "unit": "fold"}
    ]},
    {"molecule": "O=[N+]([O-])c1cc(/N=N/c2c(O)ccc3cc(S(=O)(=O)O)ccc23)c(O)c([N+](=O)[O-])c1", "note": "[NCI-65820]", "values": [
      {"measurement": "Ki", "setting": "angiogenin (ANG); read-out: KI", "result": 25, "unit": "µM"},
      {"measurement": "Tighter binding to ANG than to RNase A", "setting": "[1]", "result": 1.5, "unit": "fold"}
    ]},
    {"molecule": "Nc1ccc(/N=N/c2ccc(-c3ccc(O)cc3)cc2)c2ccc(S(=O)(=O)O)cc12", "note": "[NCI-65828, 8-amino-5-(4′-hydroxybiphenyl-4-ylazo)naphthalene-2-sulfonate]", "values": [
      {"measurement": "Ki", "setting": "angiogenin (ANG); [4]", "result": 81, "unit": "µM"},
      {"measurement": "Ki", "setting": "angiogenin (ANG); [5]", "result": 81, "unit": "µM"},
      {"measurement": "Appearance of tumors (FIGS. 1A and 1B)", "setting": "[2]; PC-3, 40 μg and 8 μg, days 14-42, vs controls", "result": "delay or prevention; also recorded: delayed the appearance of tumors"},
      {"measurement": "Rate of tumor development (preliminary test)", "setting": "[2]; PC-3, s.c. 6 times per week, doses of 40 μg, 8 μg and 1.6 μg, vs control groups", "result": "developed tumors at a slower rate"},
      {"measurement": "Percentage of Tumor-Bearing Mice, day 14", "setting": "[2]; [6]", "result": 0, "unit": "%"},
      {"measurement": "Percentage of Tumor-Bearing Mice, day 17", "setting": "[2]; [6]", "result": 38, "unit": "%"},
      {"measurement": "Percentage of Tumor-Bearing Mice, day 21", "setting": "[2]; [6]", "result": 50, "unit": "%"},
      {"measurement": "Percentage of Tumor-Bearing Mice, day 24", "setting": "[2]; [6]", "result": 100, "unit": "%"},
      {"measurement": "Percentage of Tumor-Bearing Mice, day 32", "setting": "[2]; [6]", "result": 100, "unit": "%"},
      {"measurement": "Percentage of Tumor-Bearing Mice, day 35", "setting": "[2]; [6]", "result": 100, "unit": "%"},
      {"measurement": "Percentage of Tumor-Bearing Mice, day 14", "setting": "[2]; [7]", "result": 0, "unit": "%"},
      {"measurement": "Percentage of Tumor-Bearing Mice, day 17", "setting": "[2]; [7]", "result": 25, "unit": "%"},
      {"measurement": "Percentage of Tumor-Bearing Mice, day 21", "setting": "[2]; [7]", "result": 50, "unit": "%"},
      {"measurement": "Percentage of Tumor-Bearing Mice, day 24", "setting": "[2]; [7]", "result": 100, "unit": "%"},
      {"measurement": "Percentage of Tumor-Bearing Mice, day 32", "setting": "[2]; [7]", "result": 100, "unit": "%"},
      {"measurement": "Percentage of Tumor-Bearing Mice, day 35", "setting": "[2]; [7]", "result": 100, "unit": "%"},
      {"measurement": "Time of appearance of tumors (Example 3, Table 1)", "setting": "[2]; PC-3 s.c., treatment s.c. 6 times per week", "result": "delayed considerably the time of appearance of tumors"},
      {"measurement": "Formation of tumors (FIG. 1C)", "setting": "[3]", "result": "delay or prevention; also recorded: significantly delayed the formation of tumors"}
    ]},
    {"molecule": "Benzopurpurin B", "values": [
      {"measurement": "Ki", "setting": "angiogenin (ANG); [4]", "result": 5, "unit": "µM"},
      {"measurement": "Ki", "setting": "angiogenin (ANG); [5]", "result": 5, "unit": "µM"},
      {"measurement": "Protection of total RNA from degradation", "setting": "E. coli RNase I", "result": "significant protection from RNA degradation"}
    ]}
  ]
}
